Assay [1] deals with human Gal-1 (hGal-1) (Homo sapiens, UniProt P09382, C131S/C17S/C43S/C61S/C89S). Nature of the assay: Competitive binding assay: biotinylated hGal-1 binding to microplate-adsorbed asialofetuin (ASF). As to conditions: IC50 values from several measurements given as geomean. The procedure:
(§1) The inhibitory activity of compounds is determined in competitive binding assays. This spectrophotometric assay measures the binding of biotinylated human Gal-3 (hGal-3) or human Gal-1 (hGal-1), respectively, to a microplate-adsorbed glycoprotein, asialofetuin (ASF) (Proc Natl Acad Sci USA. 2013 Mar. 26; 110(13):5052-7.). Alternatively, and preferably, a human Gal-1 version in which all six cysteines are substituted by serines may be used.
(§2) Briefly, compounds are serially diluted in DMSO (working dilutions). ASF-coated 384well plates are supplemented with 22.8 μL/well of biotinylated hGal-3 or hGal-1 in assay buffer (i.e. 300-1000 ng/mL biotinylated hGal-3 or hGal-1) to which 1.2 μL of compound working dilutions are added and mixed.
(§3) Plates are incubated for 3 hours at 4° C., then washed with cold assay buffer (3×50 uL), incubated for 1 hour with 25 μL/well of a streptavidin-peroxidase solution (diluted in assay buffer to 80 ng/mL) at 4° C., followed by further washing steps with assay buffer (3×50 uL). Finally, 25 μL/well of ABTS substrate is added.
(§4) The calculated IC50 values may fluctuate depending on the daily assay performance. Fluctuations of this kind are known to those skilled in the art. IC50 values from several measurements are given as geomean values.

Assay [2] addresses human Gal-3 (hGal-3) (Homo sapiens (Human), UniProt P17931). Nature of the assay: Competitive binding assay: biotinylated hGal-3 binding to microplate-adsorbed asialofetuin (ASF). As to conditions: IC50 values from several measurements given as geomean. Here is the method: as §1, §2, §3, §4

human Gal-3 (hGal-3), sequence (P17931 whole entry): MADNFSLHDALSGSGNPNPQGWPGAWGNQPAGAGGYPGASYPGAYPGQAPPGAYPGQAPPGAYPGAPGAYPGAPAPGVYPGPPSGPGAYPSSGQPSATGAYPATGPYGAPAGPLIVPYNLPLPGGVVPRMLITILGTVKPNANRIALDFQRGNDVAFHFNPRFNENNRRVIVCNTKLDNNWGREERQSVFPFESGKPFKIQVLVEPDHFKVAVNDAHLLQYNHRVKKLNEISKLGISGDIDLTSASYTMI

Usually IC50 stands for the concentration at which inhibition is half-maximal. Low readings indicate greater potency in that assay, high ones weaker potency in that assay. Take `CO[C@@H]1[C@@H](n2cc(-c3ccc(Cl)c(F)c3F)nn2)[C@@H](O)[C@@H](CO)O[C@@H]1Cc1cn([C@@H]2COC[C@H]2F)nn1` (single isomer, unassigned) [Example 2.1.74.C, (2R,3R,4S,5R,6R)-4-(4-(4-chloro-2,3-difluorophenyl)-1H-1,2,3-triazol-1-yl)-6-((1-((3R*,4S*)-4-fluorotetrahydrofuran-3-yl)-1H-1,2,3-triazol-4-yl)methyl)-2-(hydroxymethyl)-5-methoxytetrahydro-2H-pyran-3-ol]: the half-inhibitory concentration (IC50) in assay [1] was found to be 3940 nM; in assay [2], 60 nM.
As to `CO[C@@H]1[C@@H](n2cc(-c3ccc(Cl)c(F)c3F)nn2)[C@@H](O)[C@@H](CO)O[C@@H]1Cc1cn([C@@H]2COC[C@H]2F)nn1` (single isomer, unassigned) [Example 2.1.74.D, (2R,3R,4S,5R,6R)-4-(4-(4-chloro-2,3-difluorophenyl)-1H-1,2,3-triazol-1-yl)-6-((1-((3R*,4S*)-4-fluorotetrahydrofuran-3-yl)-1H-1,2,3-triazol-4-yl)methyl)-2-(hydroxymethyl)-5-methoxytetrahydro-2H-pyran-3-ol], the half-maximal inhibitory concentration (IC50) in assay [1] stood at 3540 nM; in assay [2], 70 nM.
In the case of `CO[C@@H]1[C@@H](n2cc(-c3ccc(Cl)c(F)c3F)nn2)[C@@H](O)[C@@H](CO)O[C@@H]1Cc1cn(C2(C(F)(F)F)CCOC2)nn1` (single isomer, unassigned) [Example 2.1.77.B], the IC50 in assay [1] was found to be 590 nM; in assay [2] it was 30 nM.
In the case of `CO[C@@H]1[C@@H](n2cc(-c3ccc(Cl)c(F)c3F)nn2)[C@@H](O)[C@@H](CO)O[C@@H]1Cc1cn(C2(C(F)F)CCOC2)nn1` (single isomer, unassigned) [Example 2.1.78.A], the IC50 in assay [1] is 360 nM; in assay [2], 40 nM.
For the molecule `CO[C@@H]1[C@@H](n2cc(-c3ccc(Cl)c(F)c3F)nn2)[C@@H](O)[C@@H](CO)O[C@@H]1Cc1cn(C2(C(F)F)CCOC2)nn1` (single isomer, unassigned) [Example 2.1.78.B], the results for the half-inhibitory concentration (IC50) in assay [1] and in assay [2] were 240 nM and 20 nM, respectively.
For the molecule `CO[C@@H]1[C@@H](n2cc(-c3ccc(Cl)c(F)c3F)nn2)[C@@H](O)[C@@H](CO)O[C@@H]1Cc1cn(C2CCCCC2(F)F)nn1` (single isomer, unassigned) [Example 2.1.80.A], the IC50 in assay [1] was found to be 1020 nM; in assay [2], 20 nM.
Regarding `CO[C@@H]1[C@@H](n2cc(-c3ccc(Cl)c(F)c3F)nn2)[C@@H](O)[C@@H](CO)O[C@@H]1Cc1cn(C2CCCCC2(F)F)nn1` (single isomer, unassigned) [Example 2.1.80.B], the values for the IC50 in assay [1] and in assay [2] were 1740 nM and 30 nM, respectively.
Take `CO[C@@H]1[C@@H](n2cc(-c3ccc(Cl)c(F)c3F)nn2)[C@@H](O)[C@@H](CO)O[C@@H]1Cc1cn([C@@H]2CC[C@@H]2F)nn1` (single isomer, unassigned) [Example 2.1.88.B, (2R,3R,4S,5R,6R)-4-(4-(4-chloro-2,3-difluorophenyl)-1H-1,2,3-triazol-1-yl)-6-((1-((1R*,2S*)-2-fluorocyclobutyl)-1H-1,2,3-triazol-4-yl)methyl)-2-(hydroxymethyl)-5-methoxytetrahydro-2H-pyran-3-ol]: the concentration for half-maximal inhibition (IC50) in assay [1] came to 920 nM; in assay [2] it was 30 nM.
With `CO[C@@H]1[C@@H](n2cc(-c3ccc(Cl)c(F)c3F)nn2)[C@@H](O)[C@@H](CO)O[C@@H]1Cc1cn([C@@H]2CC[C@H]2F)nn1` (single isomer, unassigned) [Example 2.1.88.D, (2R,3R,4S,5R,6R)-4-(4-(4-chloro-2,3-difluorophenyl)-1H-1,2,3-triazol-1-yl)-6-((1-((1R*,2R*)-2-fluorocyclobutyl)-1H-1,2,3-triazol-4-yl)methyl)-2-(hydroxymethyl)-5-methoxytetrahydro-2H-pyran-3-ol], the values for the IC50 in assay [1] and in assay [2] were 2270 nM and 40 nM, respectively.
With `CO[C@@H]1[C@@H](n2cc(-c3ccc(Cl)c(F)c3F)nn2)[C@@H](O)[C@@H](CO)O[C@@H]1Cc1cn(C2CCOCC2(F)F)nn1` (single isomer, unassigned) [Example 2.1.89.A], the 50% inhibitory concentration (IC50) in assay [1] amounted to 100 nM; in assay [2], 10 nM.
As to `CO[C@@H]1[C@@H](n2cc(-c3ccc(Cl)c(F)c3F)nn2)[C@@H](O)[C@@H](CO)O[C@@H]1Cc1cn(C2CCOCC2(F)F)nn1` (single isomer, unassigned) [Example 2.1.89.B], the concentration for half-maximal inhibition (IC50) in assay [1] stood at 870 nM; in assay [2], 20 nM.
`CO[C@@H]1[C@@H](n2cc(-c3ccc(F)c(F)c3F)nn2)[C@@H](O)[C@@H](CO)O[C@@H]1Cc1cn([C@@H]2CCOC[C@H]2F)nn1` (single isomer, unassigned) [Example 3.1.66.C, (2R,3R,4S,5R,6R)-6-((1-((3S*,4R*)-3-fluorotetrahydro-2H-pyran-4-yl)-1H-1,2,3-triazol-4-yl)methyl)-2-(hydroxymethyl)-5-methoxy-4-(4-(2,3,4-trifluorophenyl)-1H-1,2,3-triazol-1-yl)tetrahydro-2H-pyran-3-ol]: the IC50 in assay [1] came out at 270 nM; in assay [2], 40 nM.
With `CO[C@@H]1[C@@H](n2cc(-c3ccc(F)c(F)c3F)nn2)[C@@H](O)[C@@H](CO)O[C@@H]1Cc1cn([C@@H]2CCOC[C@H]2F)nn1` (single isomer, unassigned) [Example 3.1.66.D, (2R,3R,4S,5R,6R)-6-((1-((3S*,4R*)-3-fluorotetrahydro-2H-pyran-4-yl)-1H-1,2,3-triazol-4-yl)methyl)-2-(hydroxymethyl)-5-methoxy-4-(4-(2,3,4-trifluorophenyl)-1H-1,2,3-triazol-1-yl)tetrahydro-2H-pyran-3-ol], the results for the concentration for half-maximal inhibition (IC50) in assay [1] and in assay [2] were 310 nM and 20 nM, respectively.
Turning to `CO[C@@H]1[C@@H](n2cc(-c3ccc(C)c(F)c3F)nn2)[C@@H](O)[C@@H](CO)O[C@@H]1Cc1cn([C@@H]2COCC[C@H]2O)nn1` [Ex 1.1.1.], the values for the concentration for half-maximal inhibition (IC50) in assay [1] and in assay [2] were 2610 nM and 50 nM, respectively.
The matching figures for `CO[C@@H]1[C@@H](n2cc(-c3ccc(C)c(F)c3F)nn2)[C@@H](O)[C@@H](CO)O[C@@H]1Cc1cn([C@@H]2CCC[C@H]2O)nn1` [Ex 1.1.2.]: 6460 nM and 40 nM.
For the molecule `CO[C@@H]1[C@@H](n2cc(-c3ccc(C)c(F)c3F)nn2)[C@@H](O)[C@@H](CO)O[C@@H]1Cc1cn([C@H]2CCC[C@@H]2O)nn1` [Ex 1.1.3.], the IC50 in assay [1] is 3150 nM; in assay [2] it was 40 nM.
As for `CO[C@@H]1[C@@H](n2cc(-c3ccc(C)c(F)c3F)nn2)[C@@H](O)[C@@H](CO)O[C@@H]1Cc1cn(C2(CO)CC2)nn1` [Ex 1.1.4.], the values for the IC50 in assay [1] and in assay [2] were 2570 nM and 40 nM, respectively.
`CO[C@@H]1[C@@H](n2cc(-c3ccc(C)c(F)c3F)nn2)[C@@H](O)[C@@H](CO)O[C@@H]1Cc1cn(C2(CO)CCCC2)nn1` [Ex 1.1.5.]: the IC50 turned out to be 2570 nM in assay [1] and 50 nM in assay [2].
On to `CO[C@@H]1[C@@H](n2cc(-c3ccc(C)c(F)c3F)nn2)[C@@H](O)[C@@H](CO)O[C@@H]1Cc1cn(C2(C)COC2)nn1` [Ex 1.1.6.], for which the IC50 in assay [1] stood at 2210 nM; in assay [2], 40 nM.
Turning to `COCC1(n2cc(C[C@H]3O[C@H](CO)[C@H](O)[C@H](n4cc(-c5ccc(C)c(F)c5F)nn4)[C@H]3OC)nn2)CC1` [Ex 1.1.7.], the IC50 is 5100 nM in assay [1] and 60 nM in assay [2].
For the molecule `CO[C@@H]1[C@@H](n2cc(-c3ccc(C)c(F)c3F)nn2)[C@@H](O)[C@@H](CO)O[C@@H]1Cc1cn(C23CCC(O)(CC2)CC3)nn1` [Ex 1.1.8.], the IC50 in assay [1] worked out at 4010 nM; in assay [2] it was 50 nM.
On to `CO[C@@H]1[C@@H](n2cc(-c3ccc(C)c(F)c3F)nn2)[C@@H](O)[C@@H](CO)O[C@@H]1Cc1cn(C(C)(C)CO)nn1` [Ex 1.1.9.], for which the IC50 in assay [1] was determined as 44000 nM; in assay [2] it was 70 nM.
For `CO[C@@H]1[C@@H](n2cc(-c3ccc(C)c(F)c3F)nn2)[C@@H](O)[C@@H](CO)O[C@@H]1Cc1cn(C2(CO)CCC2)nn1` [Ex 1.1.11.], in that order: 2090 nM and 40 nM.
Turning to `CO[C@@H]1[C@@H](n2cc(-c3ccc(C)c(F)c3F)nn2)[C@@H](O)[C@@H](CO)O[C@@H]1Cc1cn(C23CC(C2)C3)nn1` [Ex 1.1.12.], the IC50 in assay [1] amounted to 4150 nM; in assay [2], 50 nM.
In the case of `CO[C@@H]1[C@@H](n2cc(-c3ccc(C)c(F)c3F)nn2)[C@@H](O)[C@@H](CO)O[C@@H]1Cc1cn(C2(C)CCC2)nn1` [Ex 1.1.13.], the IC50 was determined as 1450 nM in assay [1] and 30 nM in assay [2].
Consider `CO[C@@H]1[C@@H](n2cc(-c3ccc(C)c(F)c3F)nn2)[C@@H](O)[C@@H](CO)O[C@@H]1Cc1cn(C23CC(C)(C2)C3)nn1` [Ex 1.1.14.], for which the IC50 is 2610 nM in assay [1] and 40 nM in assay [2].
`CO[C@@H]1[C@@H](n2cc(-c3ccc(C)c(F)c3F)nn2)[C@@H](O)[C@@H](CO)O[C@@H]1Cc1cn(C2(C)CC(F)(F)C2)nn1` [Ex 1.1.15.]: the figures for the IC50 in assay [1] and in assay [2] were 1760 nM and 30 nM, respectively.
`CO[C@@H]1[C@@H](n2cc(-c3ccc(C)c(F)c3F)nn2)[C@@H](O)[C@@H](CO)O[C@@H]1Cc1cn(C2CC3(COC3)C2)nn1` [Ex 1.1.16.]: the concentration for half-maximal inhibition (IC50) in assay [1] was found to be 3690 nM; in assay [2] it was 50 nM.

For the origin of these results see patent US20240109930A1, “TRIAZOLYL-METHYL SUBSTITUTED ALPHA-D-GALACTOPYRANOSIDE DERIVATIVES” (Idorsia Pharmaceuticals Ltd, priority 2021, published 2024).
